Patent US20230295131A1, “INHIBITORS OF RHO-ASSOCIATED COILED-COIL KINASE” (Angion Biomedica Corp., priority 2020, published 2023)

Legend:
[1] = test system: CTGF in mouse embryonic fibroblasts (MEFs); assay: TGFβ1-induced CTGF production assay; format: cell-based; details: 1 hour pretreatment before TGFβ1, real time PCR
Protocol: Mouse embryonic fibroblasts (MEFs) were isolated, starved overnight, then pretreated with Ex. 65 or Ex. 93 for 1 hour prior to addition of TGFβ1. RNA was isolated from cells and real time PCR was performed for CTGF.

[2] = test system: fast-food diet (FFD)+CCl4+sugar-induced NASH; assay: Fast-food diet (FFD)+CCl4+sugar-induced NASH model; format: in vivo, mice; details: 30 mg/kg, IP, twice-daily for two weeks; for hepatic lipid accumulation (liver steatosis): FIG. 3; for NAFLD activity score (NAS): FIG. 4
Protocol: (§1) 2. Pharmacodynamic and Efficacy Profile in Hepatic Diseases: • The activity of Ex. 65 was evaluated in a model of fast-food diet (FFD)+CCl4+sugar-induced NASH. Adult male mice were randomized to vehicle of 30 mg/kg test compound, IP, twice-daily for two weeks. Treatment with Ex. 65 reduced hepatic lipid accumulation (FIG. 3) and NAFLD activity score (NAS; FIG. 4).

[3] = test system: miRNAs in hepatic homogenates; assay: miRNA quantification in liver homogenates of the NASH model; format: in vivo, mice
Protocol: as §1
MicroRNAs (miRNAs) from liver homogenates from the study described above were quantified. Compared to healthy livers, 65 differentially expressed miRNAs from NASH livers were identified, of which 22 were corrected by treatment with Ex. 65 (see Table 6).

[4] = Pharmacokinetic profile, compound levels in the portal vein; format: in vivo, C57BL/6 Mouse
Protocol: For assessing compound levels in the portal vein, 7-8 week old male C57BL/6 animals were dosed orally with 10 mg/kg compound of Ex. 65 (mesylate salt) in 0.5% carboxymethyl cellulose (CMC) in water. Serum samples were collected from the portal vein at 15, 30, 60 120 and 240 minutes after dosing. Samples were analyzed for compound by LC-MS.

[5] = test system: Hepatic stellate cells; assay: Gel contraction assay (TGFβ1-induced); format: cell-based; details: test compound at 100 μM, 1 hour pretreatment, TGFβ1 24 hours
Protocol: Hepatic stellate cells were plated onto collagen coated plates and pretreated with test compound (at 100 μM) for 1 hour. TGFβ1 is then added for 24 hours, and images are taken.

[6] = target: T1, ROCK2 (Homo sapiens, UniProt O75116); assay: ROCK2 kinase binding affinity, DiscoverX KINOMEscan KdELECT
T1 construct: T7 phage fusion (kinase-tagged phage) or DNA tag for qPCR detection
T1 sequence (O75116 whole entry, the tested form may be a part): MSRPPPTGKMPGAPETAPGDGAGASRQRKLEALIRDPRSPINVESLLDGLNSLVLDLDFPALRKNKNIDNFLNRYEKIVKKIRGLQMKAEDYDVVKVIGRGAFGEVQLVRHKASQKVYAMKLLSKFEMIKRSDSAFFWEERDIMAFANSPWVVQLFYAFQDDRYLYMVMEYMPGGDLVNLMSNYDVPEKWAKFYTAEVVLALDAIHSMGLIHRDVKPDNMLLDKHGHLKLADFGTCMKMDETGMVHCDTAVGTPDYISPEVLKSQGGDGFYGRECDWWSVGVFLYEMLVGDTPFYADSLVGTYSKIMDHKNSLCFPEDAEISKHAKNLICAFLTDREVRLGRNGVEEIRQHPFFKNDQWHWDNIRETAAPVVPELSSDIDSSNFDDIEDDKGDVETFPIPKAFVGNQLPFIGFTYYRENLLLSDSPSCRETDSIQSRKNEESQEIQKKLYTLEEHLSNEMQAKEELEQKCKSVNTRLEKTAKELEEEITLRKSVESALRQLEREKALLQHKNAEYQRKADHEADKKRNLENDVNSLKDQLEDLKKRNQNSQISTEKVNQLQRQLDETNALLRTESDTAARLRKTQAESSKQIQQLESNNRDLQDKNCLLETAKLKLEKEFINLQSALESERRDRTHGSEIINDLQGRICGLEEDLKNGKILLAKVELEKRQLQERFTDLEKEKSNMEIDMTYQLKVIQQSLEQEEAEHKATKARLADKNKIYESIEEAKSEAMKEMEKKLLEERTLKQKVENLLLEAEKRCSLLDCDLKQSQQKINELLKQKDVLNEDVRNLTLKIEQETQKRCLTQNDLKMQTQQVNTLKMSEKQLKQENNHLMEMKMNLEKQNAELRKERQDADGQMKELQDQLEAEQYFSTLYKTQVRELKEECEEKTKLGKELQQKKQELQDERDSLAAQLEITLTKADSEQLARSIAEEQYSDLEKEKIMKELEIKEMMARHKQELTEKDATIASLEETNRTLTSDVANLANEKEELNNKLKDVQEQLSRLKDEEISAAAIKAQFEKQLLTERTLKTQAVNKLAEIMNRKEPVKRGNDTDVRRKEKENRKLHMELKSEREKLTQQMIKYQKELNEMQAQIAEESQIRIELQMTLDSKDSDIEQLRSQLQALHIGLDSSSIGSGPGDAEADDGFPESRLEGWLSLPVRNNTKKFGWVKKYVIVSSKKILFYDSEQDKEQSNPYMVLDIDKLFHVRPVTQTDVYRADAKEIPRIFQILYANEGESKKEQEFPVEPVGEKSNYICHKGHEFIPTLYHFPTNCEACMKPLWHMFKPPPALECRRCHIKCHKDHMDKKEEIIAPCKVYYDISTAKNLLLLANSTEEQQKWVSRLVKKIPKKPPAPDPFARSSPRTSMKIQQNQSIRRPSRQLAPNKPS
Outline: (§2)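 Competition binding of DNA- or phage-tagged kinase to immobilised ligand beads, with bound kinase quantified by qPCR of eluates.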

[7] = target: T2, ROCK1 (Homo sapiens, UniProt Q13464); assay: ROCK1 kinase binding affinity, DiscoverX KINOMEscan KdELECT; details: 11-point 3-fold dilution
T2 construct: T7 phage fusion (kinase-tagged phage) or DNA tag for qPCR detection
T2 sequence (Q13464 whole entry, the tested form may be a part): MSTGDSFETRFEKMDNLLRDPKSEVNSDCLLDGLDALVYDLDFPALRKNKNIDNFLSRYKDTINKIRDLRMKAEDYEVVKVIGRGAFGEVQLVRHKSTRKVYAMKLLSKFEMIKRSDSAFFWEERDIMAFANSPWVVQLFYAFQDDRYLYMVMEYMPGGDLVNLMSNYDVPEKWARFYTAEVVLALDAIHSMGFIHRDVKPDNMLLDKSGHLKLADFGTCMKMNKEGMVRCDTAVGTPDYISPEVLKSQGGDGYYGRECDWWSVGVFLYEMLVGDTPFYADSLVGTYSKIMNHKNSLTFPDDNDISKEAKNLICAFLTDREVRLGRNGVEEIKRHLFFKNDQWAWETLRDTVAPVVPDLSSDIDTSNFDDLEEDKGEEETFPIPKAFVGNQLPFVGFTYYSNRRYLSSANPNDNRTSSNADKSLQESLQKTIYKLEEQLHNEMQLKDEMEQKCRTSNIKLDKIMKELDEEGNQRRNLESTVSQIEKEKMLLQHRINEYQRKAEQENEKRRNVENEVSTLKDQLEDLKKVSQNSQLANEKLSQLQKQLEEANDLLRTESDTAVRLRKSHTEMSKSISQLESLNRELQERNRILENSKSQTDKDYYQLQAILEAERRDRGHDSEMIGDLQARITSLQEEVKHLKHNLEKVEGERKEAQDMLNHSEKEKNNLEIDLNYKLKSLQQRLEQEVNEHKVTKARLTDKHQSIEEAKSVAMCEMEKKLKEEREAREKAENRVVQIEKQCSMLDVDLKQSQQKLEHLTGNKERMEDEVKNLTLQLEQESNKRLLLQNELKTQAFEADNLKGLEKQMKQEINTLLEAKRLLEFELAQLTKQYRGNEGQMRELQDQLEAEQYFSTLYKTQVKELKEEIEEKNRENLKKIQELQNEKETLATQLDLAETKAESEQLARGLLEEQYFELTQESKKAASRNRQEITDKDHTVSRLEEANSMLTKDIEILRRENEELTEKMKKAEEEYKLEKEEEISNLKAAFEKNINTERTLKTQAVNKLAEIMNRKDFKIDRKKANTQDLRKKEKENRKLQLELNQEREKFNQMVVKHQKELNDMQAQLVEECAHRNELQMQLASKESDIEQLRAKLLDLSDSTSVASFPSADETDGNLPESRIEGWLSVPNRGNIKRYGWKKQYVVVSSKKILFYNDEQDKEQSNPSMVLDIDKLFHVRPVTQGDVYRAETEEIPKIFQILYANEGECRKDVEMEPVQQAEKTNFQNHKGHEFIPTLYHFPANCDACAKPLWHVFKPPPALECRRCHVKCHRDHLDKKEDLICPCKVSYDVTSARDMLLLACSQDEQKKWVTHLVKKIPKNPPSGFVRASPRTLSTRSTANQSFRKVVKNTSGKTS
Outline: as §2

[8] = Pharmacokinetic profile, compound levels in the vena cava; format: in vivo, C57BL/6 Mouse; details: po 10 mg/kg in 0.5% CMC suspension
Protocol: For assessing compound levels in the vena cava, 10-11 week old male C57BL/6 animals were dosed orally with 10 mg/kg of Ex. 65 (mesylate salt) in 0.5% carboxymethyl cellulose (CMC) in water. Serum samples were collected from the portal vein at 15, 30, 60 120, 240, 360 and 480 minutes after dosing. Samples were analyzed for compound concentration by LC-MS.

[9] = 30 mg/kg IP twice-daily two weeks
[10] = male, C57BL/6, mouse, portal vein serum, po 10 mg/kg in 0.5% CMC suspension, mesylate salt, serum
[11] = male, C57BL/6, mouse, vena cava serum, mesylate salt, serum

- AUC [4, 10]: 697 ng·h/mL
- Cmax [4, 10]: 1540 nM
- oral bioavailability and liver entry ([4]; mice, po, portal vein versus vena cava): preferential liver entry
- Cmax as multiple of Kd, in portal vein ([4]; po 10 mg/kg in 0.5% CMC suspension): 1904*Kd
- F % in portal vein ([4]; po 10 mg/kg in 0.5% CMC suspension, mesylate salt): 22%
- Kd ([6]; KINOMEscan KdELECT, 11-point 3-fold dilution, read-out: Kd (μM) ROCK2): < 0.01 µM
- ROCK2 Selectivity ([6]; selectivity for ROCK2 over ROCK1 from Kd): **** (>500-fold selectivity for ROCK2)
- Kd [7]: 0.1 to 0.99 µM
- AUC [8, 11]: 145 ng·h/mL
- Cmax [8, 11]: 258 nM
- Cmax as multiple of Kd, in vena cava [8]: 318*Kd
- F % in vena cava ([8]; mesylate salt): 4.6%
SMILES: O[C@H]1CC[C@@H](Nc2nccc(-c3nccc(C#Cc4ccc5[nH]ncc5c4)n3)n2)CC1 [Ex. 65, (1s,4s)-4-((4-((1H-Indazol-5-yl)ethynyl)-[2,4′-bipyrimidin]-2′-yl)amino)cyclohexanol]
- CTGF production in embryonic fibroblasts [1]: attenuated
- hepatic lipid accumulation (liver steatosis) [2]: reduced
- hepatic lipid accumulation (liver steatosis) ([2]; listed as compound 65): reduction
- NAFLD activity score (NAS) [2]: reduced
- NAFLD activity score (NAS) ([2]; listed as compound 65): reduction
- hepatic levels of oncomiR-181a [3, 9]: reduced
- hepatic levels of oncomiR-425 [3, 9]: reduced
- Mean (disease + Ex. 65) mmu-miR-5123 ([3]; hepatic homogenates, mean control 3.22, disease 1.53): 3.54
- Mean (disease + Ex. 65) mmu-miR-871-3p ([3]; hepatic homogenates, mean control 4.08, disease 1.53): 7.98
- Mean (disease + Ex. 65) mmu-miR-7115-5p ([3]; hepatic homogenates, mean control 4.31, disease 8.54): 2.41
- Mean (disease + Ex. 65) mmu-let-7k ([3]; hepatic homogenates, mean control 9.04, disease 13.85): 7.72
- Mean (disease + Ex. 65) mmu-miR-93-3p ([3]; hepatic homogenates, mean control 39.45, disease 76.50): 46.52
- Mean (disease + Ex. 65) mmu-miR-542-5p ([3]; hepatic homogenates, mean control 66.04, disease 74.42): 39.03
- Mean (disease + Ex. 65) mmu-miR-27a-5p ([3]; hepatic homogenates, mean control 71.79, disease 98.65): 53.13
- Mean (disease + Ex. 65) mmu-miR-106a-5p ([3]; hepatic homogenates, mean control 115.29, disease 149.51): 114.11
- Mean (disease + Ex. 65) mmu-miR-125a-3p ([3]; hepatic homogenates, mean control 245.12, disease 297.02): 182.06
- Mean (disease + Ex. 65) mmu-miR-501-3p ([3]; hepatic homogenates, mean control 364.92, disease 489.94): 296.78
- Mean (disease + Ex. 65) mmu-miR-339-3p ([3]; hepatic homogenates, mean control 427.46, disease 502.07): 426.25
- Mean (disease + Ex. 65) mmu-miR-802-5p ([3]; hepatic homogenates, mean control 1094.11, disease 614.54): 899.47
- Mean (disease + Ex. 65) mmu-miR-322-3p ([3]; hepatic homogenates, mean control 1115.59, disease 1416.47): 949.59
- Mean (disease + Ex. 65) mmu-miR-17-3p ([3]; hepatic homogenates, mean control 1200.81, disease 1454.34): 1161.55
- Mean (disease + Ex. 65) mmu-miR-351-5p ([3]; hepatic homogenates, mean control 1248.83, disease 1603.84): 889.81
- Mean (disease + Ex. 65) mmu-miR-99b-5p ([3]; hepatic homogenates, mean control 1421.33, disease 1933.41): 1099.61
- Mean (disease + Ex. 65) mmu-miR-425-5p ([3]; hepatic homogenates, mean control 1716.15, disease 2037.69): 1524.04
- Mean (disease + Ex. 65) mmu-miR-181a-5p ([3]; hepatic homogenates, mean control 3789.12, disease 5124.26): 2941.29
- Mean (disease + Ex. 65) mmu-miR-320-3p ([3]; hepatic homogenates, mean control 4080.44, disease 5204.90): 3896.99
- Mean (disease + Ex. 65) mmu-miR-93-5p ([3]; hepatic homogenates, mean control 36188.01, disease 41626.66): 31184.61
- Mean (disease + Ex. 65) mmu-miR-143-3p ([3]; hepatic homogenates, mean control 67983.70, disease 80209.00): 58204.03
- Mean (disease + Ex. 65) mmu-miR-191-5p ([3]; hepatic homogenates, mean control 118228.91, disease 141957.68): 119365.71
- number of differentially expressed miRNAs of NASH livers corrected by treatment ([3]; of 65 differentially expressed miRNAs, 30 mg/kg IP twice-daily two weeks): 22
- TGFβ1-induced gel contraction in hepatic stellate cells [5]: significantly attenuated
